Measurements: PMC9519869, “Synthesis, biological evaluation, and molecular modeling studies of new benzoxazole derivatives as PARP-2 inhibitors targeting breast cancer” (Scientific Reports, 2022)
“Also recorded” adds a separate entry of the source.

Experiments:
MCF-7 cells [1] = experiment: Cell cycle analysis by flow cytometry (PI staining); type: cell-based, human; settings: MCF-7 treated at IC50 concentration; for percentage of cells in pre-G1 phase (%Pre-G1) / percentage of cells in G2/M phase (%G2/M) / percentage of cells in S phase (%S) / percentage of cells in G0/G1 phase (%G0-G1): 24 h; for percentage of cells in pre-G1 phase (%Pre-G1): untreated control 1.85%; for percentage of cells in G2/M phase (%G2/M): untreated control 11.84%; for percentage of cells in S phase (%S): untreated control 29.95%; for percentage of cells in G0/G1 phase (%G0-G1): untreated control 58.21%
Method: For further investigation of the promising antiproliferative activity of compounds 11, 12, 13 and 27 on breast cancer MCF-7 cell line, cell cycle analysis was carried out using flow cytometric assay. […] The flow cytometric assay results were compared to the negative control untreated MCF-7 cell line.
MCF-7 cells were seeded in 24-well plate at a density of 2 × 10^5 cells/well, treated with the test compounds 11, 12, 13 and 27 at different concentrations and incubated at 37 °C for 24 h in 5% CO2 atmosphere. The cells were washed with ice-cold phosphate buffer saline (PBS) twice and fixed in 70% ice-cold ethanol overnight and then suspended in (PBS) containing PI (DNA staining solution) at concentration of 50 µg/mL, 0.1 mg/mL RNAase A (Sigma, USA) and 0.05% Triton X-100. Cells were analysed by flow cytometry after 30 min at 37 n the dark using FACSCalibur (Becton Dickinson FACS, San Jose, CA) flow cytometer. The cell cycle distributions were measured using Cell-Quest software.
Suppl. S3. Cell cycle analysis for compounds 11, 12, 13 and 27 […]
Assay : Cell Cycle Analysis
Kit used : ab139418_Propidium Iodide Flow Cytometry Kit/BD
Assay samples : Cell culture
Table S3. Cell cycle phase distribution in MCF-7 cell line treated with vehicle control and the newly synthesised compounds; 11, 12, 13 and 27. […]

PARP-2 enzyme = biological target: T1, PARP-2 enzyme (Homo sapiens, UniProt Q9UGN5); experiment: Poly (ADP-ribose) polymerase 2 (PARP-2) inhibition assay (colorimetric kit); type: biochemical; settings: for IC50: in vitro enzyme assay
T1 construct: purchased BPS Bioscience 80,581
T1 sequence (Q9UGN5 whole entry): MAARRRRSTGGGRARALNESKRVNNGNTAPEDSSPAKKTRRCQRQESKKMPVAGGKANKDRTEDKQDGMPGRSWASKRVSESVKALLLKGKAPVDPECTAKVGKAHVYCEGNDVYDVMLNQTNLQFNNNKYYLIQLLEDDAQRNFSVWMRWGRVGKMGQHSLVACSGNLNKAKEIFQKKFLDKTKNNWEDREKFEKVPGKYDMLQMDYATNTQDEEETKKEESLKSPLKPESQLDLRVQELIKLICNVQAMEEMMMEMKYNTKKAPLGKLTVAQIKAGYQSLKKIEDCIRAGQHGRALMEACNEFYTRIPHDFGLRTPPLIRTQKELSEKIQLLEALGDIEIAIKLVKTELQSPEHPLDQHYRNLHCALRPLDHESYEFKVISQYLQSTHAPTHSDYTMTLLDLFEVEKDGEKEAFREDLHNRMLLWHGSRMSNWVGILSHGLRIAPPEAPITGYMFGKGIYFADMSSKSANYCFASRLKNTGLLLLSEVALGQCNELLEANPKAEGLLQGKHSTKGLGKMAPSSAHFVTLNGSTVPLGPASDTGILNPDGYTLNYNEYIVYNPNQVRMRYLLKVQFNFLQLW
Method: Results were expressed as IC50 values (Table 2).
The PARP-2 inhibitory activity of the test compounds was assayed using PARP-2 Colorimetric Activity Assay Kit (BPS Bioscience, catalog 80,581, San Diego, CA, USA) following the manufacturer’s protocol. Briefly, histone protein mixture was coated on a 96-well microtiter plate and incubated at 4 °C overnight, washed with phosphate-buffered saline with tween-20 (PBST) three times then, the wells were blocked by adding blocking buffer 3 and incubated at room temperature for 60–90 min. After that, the plate was washed with PBST buffer three times. The master mixture which contains the PARP buffer, PARP assay mixture, activated DNA and distilled water was added to each well then, the inhibitor solution (test compound) was added. The reaction was initiated by adding PARP-2 enzyme to the wells and the plate was incubated for 1 h at room temperature. After 1 h, the reaction mixture was discarded, and the plate was washed with PBST buffer three times. Finally, the plate was treated with Streptavidin–Horseradish Peroxidase (HRP) and incubated for 30 min at room temperature and then washed with PBST buffer. The colorimetric HRP substrate was added to each well and incubated at room temperature until the positive control well developed blue color. Sulphuric acid was added to each well after the blue color development. The absorbance was read at 450 nm using UV/Vis spectrophotometer microplate reader.
Suppl. S2. In vitro PARP-2 enzyme inhibition assay
Researcher : Dr. Nadeen Ghobashy email:elghobashynadeen@gmail.com mob.01008873340
Reader : ROBONIK P2000 Eliza Reader wl 450 nm

MDA-MB-231 = experiment: In vitro cytotoxicity screening, MTT assay; settings: Homo sapiens, MDA-MB-231, 24 h, read-out: In vitro Cytotoxicity (IC50, µM) MDA-MB-231
Description: Two human breast cancer cell lines, namely, MDA-MB-231 and MCF-7 were obtained from American Type Culture Collection (ATCC) via a holding company for biological products and vaccines (VACSERA), Cairo, Egypt. […] The reagents used were RPMI-1640 medium, MTT, DMSO (sigma co., St. Louis, USA), and Fetal bovine serum (GIBCO, UK). […] MTT is a colorimetric assay based on the conversion of the yellow tetrazolium bromide (MTT) to a purple formazan derivative by mitochondrial succinate dehydrogenase in viable cells. Cell lines were cultured in RPMI-1640 medium with 10% foetal bovine serum. Antibiotics added were 100 units/ml penicillin and 100 µg/ml streptomycin maintained at 37 °C in a 5% CO2 incubator. The cell lines were seeded at a density of approximately 1.0 × 10 ^4 cells/well in a 96-well plate at 37 °C for 48 h under 5% CO2. Different concentrations of compounds were added and incubated for 24 h. After 24 h of drug treatment, 20 µl of MTT staining solution at 5 mg/ml was added to each well and incubated for 4 h at 37 °C. After 4 h, 100 µl of dimethyl sulfoxide (DMSO) were added into each well to dissolve the purple formazan crystals formed. The absorbance was recorded at 570 nm using a plate reader (EXL 800, USA). The relative cell viability in percentage was calculated as (A570 of treated samples/A570 of untreated sample) X 100 [22],[23].

MCF-7 cells [2] = experiment: Annexin V-FITC/PI double staining flow cytometry, apoptosis and necrosis; type: cell-based, human; settings: MCF-7 treated at IC50 concentration, 24 h; for % Late apoptosis: untreated control 0.33%; for % Early apoptosis: untreated control 0.37%; for % Necrosis: untreated control 1.15%; for % Total apoptosis: untreated control 1.85%
Description: Apoptosis, which is a programmed cell death, is considered as an important way to express cell death among anticancer agents. Most of the anticancer agents can induce apoptosis in cancerous cells. To examine whether the potent cytotoxic effect of 11, 12, 13 and 27 was attributed to apoptosis or necrosis, annexin V-FITC propidium iodide (PI) double staining flow cytometry assay was applied. […] The cells were then stained with annexin V-FITC propidium iodide (PI) and the percentage of apoptotic cells was determined by flow cytometry. […] Compounds 11, 12, 13 and 27 induced necrotic effect 5.74%, 7.23%, 6.39% and 2.07%, respectively in comparison to the untreated negative control MCF-7 cells (1.15%).
Cell death by apoptosis was detected by flow cytometric method using Annexin-V/FITC propidium iodide Apoptosis Detection Kit Catalog #: K101-25; Biovision, USA). MCF-7 cells were seeded at a density of 2 × 10 ^5 cells/well in 24-well plate, treated with the test compounds 11, 12, 13 and 27 at different concentrations and incubated at 37 °C for 24 h in 5% CO2 atmosphere. Cells were collected and suspended in 500 µl binding buffer and then 5 µl of Annexin V-FITC and 5 µl of PI were added and mixed. The mixture was incubated for 5 min in the dark at room temperature. Cell apoptosis analyses were performed using FACSCalibur (Becton Dickinson FACS, San Jose, CA) flow cytometer.

%inh of PARP-2 (Table S2 raw data) (PARP-2 enzyme; conc 0.01 (ng/ml)) [%]	%inh of PARP-2 (Table S2 raw data) (PARP-2 enzyme; conc 0.1 (ng/ml)) [%]	%inh of PARP-2 (Table S2 raw data) (PARP-2 enzyme; conc 1 (ng/ml)) [%]	%inh of PARP-2 (Table S2 raw data) (PARP-2 enzyme; conc 10 (ng/ml)) [%]	IC50 (PARP-2 enzyme) [nM]	Compound	cell cycle arrest phase (MCF-7 cells [1])	percentage of cells in pre-G1 phase (%Pre-G1) (MCF-7 cells [1]) [%]	percentage of cells in G2/M phase (%G2/M) (MCF-7 cells [1]) [%]	percentage of cells in S phase (%S) (MCF-7 cells [1]) [%]	percentage of cells in G0/G1 phase (%G0-G1) (MCF-7 cells [1]) [%]	IC50 (MDA-MB-231) [µM]	% Late apoptosis (MCF-7 cells [2]) [%]	% Early apoptosis (MCF-7 cells [2]) [%]	% Necrosis (MCF-7 cells [2]) [%]	% Total apoptosis (MCF-7 cells [2]) [%]
28.75	43.61	58.88	84.97	190 ± 10	O=C(CCN1CCCCC1)Nc1ccc(-c2nc3cc(Cl)ccc3o2)cc1 [Compound 11, N-(4-(5-chlorobenzoxazol-2-yl)phenyl)-3-(piperidin-1-yl)propanamide]	cell growth arrest@ G1; also recorded: cell cycle arrest at G0/G1 phase	45.07	7.22	24.76	68.02	5.63 ± 0.3	23.02	16.31	5.74	45.07
35.69	53.11	67.93	90.18	70 ± 4	O=C(CCN1CCOCC1)Nc1ccc(-c2nc3cc(Cl)ccc3o2)cc1 [Compound 12, N-(4-(5-chlorobenzoxazol-2-yl)phenyl)-3-morpholinopropanamide]		33.47	32.04	26.18	41.78	6.14 ± 0.5	3.72	22.52	7.23	33.47
30.58	46.82	71.31	88.69	106 ± 6	CN1CCN(CCC(=O)Nc2ccc(-c3nc4cc(Cl)ccc4o3)cc2)CC1 [Compound 13, N-(4-(5-chlorobenzoxazol-2-yl)phenyl)-3-(4-methylpiperazin-1-yl)propanamide]	cell growth arrest@ G2/M; also recorded: cell cycle arrest at G2/M phase	29.66	26.51	28.51	44.98	7.52 ± 0.6	10.99	12.28	6.39	29.66
37.25	52.67	73.48	88.84	57 ± 3	CCN(CC)CCC(=O)Nc1ccc(-c2nc3cc(Cl)ccc3o2)cc1 [Compound 27, N-(4-(5-chlorobenzoxazol-2-yl)phenyl)-3-(diethylamino)propanamide]		25.91	4.46	33.16	62.38	11.3 ± 0.9	4.58	19.26	2.07	25.91
